The record followed here is US9969726B2, “Metabotropic glutamate receptor negative allosteric modulators (NAMS) and uses thereof” (Sanford-Burnham Medical Research Institute, priority 2014, dated 2018).

One data set has as its target rat mGlu2 receptor (Rattus norvegicus (Rat), UniProt P31421). Nature of the data set: mGlu2 in vitro GIRK thallium flux assay. Type of data set: cell-based. The conditions noted are these: NAM, EC80 glutamate, HEK-293 GIRK cells. In short, it runs like this: (§1)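 Cells expressing rat mGlu2 or mGlu3 with GIRK, plated overnight at 37 °C. Test compounds (0.3% DMSO, 10-point 1:3 series) preincubated 2.5 or 60 min, then thallium buffer plus EC80 glutamate added. Fluorescence slope 5–15 s after addition, normalised to vehicle and maximal agonist, fitted by four-parameter logistic.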

The next data set addresses rat mGlu3 receptor (Rattus norvegicus (Rat), UniProt P31422). Nature of the data set: mGlu3 in vitro GIRK thallium flux assay. Type of data set: cell-based. The conditions noted are these: NAM; 2.5 min compound incubation; EC80 glutamate; HEK-293 GIRK cells. An outline of the steps:
as §1

Data set [1] in a line: Microsomal stability in vitro assay. Type of data set: in vitro ADME. The following applies: rat liver microsomes 1 mg/mL, 4 μM compound, 2 mM NADPH. The procedure:
Pooled rat liver microsomes (BD Biosciences, #452701) were preincubated with test compounds at 37.5° C. for 5 min in the absence of NADPH. The reaction was initiated by addition of NADPH and incubated under the same conditions. The final incubation concentrations were 4 μM test compound, 2 mM NADPH, and 1 mg/mL (total protein) liver microsomes in phosphate-buffered saline (PBS) at pH 7.4. One aliquot (100 μL) of the incubation mixture was withdrawn at 15 min time points and combined immediately with 100 μL of ACN/MeOH. After mixing, the sample was centrifuged at approximately 13000 rpm for 12 min. The supernatant was filtered and transferred into an autosampler vial and the amount of test compound was quantified using a Shimadzu LCMS 2010EV mass spectrometer. The change of the AUC (area under the curve) of the parent compound as a function of time was used as a measure of microsomal stability. Test compounds were run in duplicate with a positive control.

The nature of data set [2]: Plasma stability in vitro assay. Type of data set: in vitro ADME. The conditions noted are these: rat plasma, 100 μM, 37.5° C. The procedure:
A 20 μL aliquot of a 10 mM solution in DMSO of the test compound was added to 2.0 mL of heparinized rat plasma (Lampire, P1-150N) to obtain a 100 μM final solution. The mixture was incubated for 1 h at 37.5° C. Aliquots of 100 μL were taken at 15 min intervals and diluted with 100 μL of MeOH/ACN. After mixing, the sample was centrifuged at approximately 13000 rpm for 12 min. The supernatant was filtered and transferred into an autosampler vial and the amount of test compound was quantified using the Shimadzu LCMS-2010EV system. The change of the AUC of the parent compound in function of time was used as a measure of plasma stability.

Data set [3] in a line: PK: brain and plasma levels collected after the FST. Type of data set: in vivo, rat. The conditions noted are these: Wistar. As to the method: After the habituation swim and 24 hours prior to the test swim, rats were administered one of three doses of a mGlu2/3 NAM, with doses and pretreatment time based on maximal brain penetration as determined by PK studies for each compound. Blood and brain tissue were collected immediately after the FST and the PK properties of each compound were analyzed together with FST behavior. The modified forced swim test was carried out as described previously in Cryan et al., 2003. Briefly, rats were taken from the vivarium and immediately placed individually for 15 min in Pyrex cylinders (21×46 cm; Fisher Scientific, Tustin, Calif.), which were filled with water to a depth of 30 cm. The testing room was bright, and two bright (60-watt) lamps provided extra illumination above the cylinders. The rats were removed 15 min later, dried, and placed in their home cage. Twenty-four hours after their first exposure, the animals were again placed in the swim apparatus for 5 min, and behaviors were monitored from above by video camera for subsequent analysis. The rater of the behavioral patterns was blind with respect to the experimental conditions being scored. A time sampling technique was employed whereby the predominant behavior in each 5-sec period of the 300-sec test was recorded. Climbing behavior consisted of upward-directed movements of the forepaws along the side of the swim chamber. Swimming behavior was defined as movement (usually horizontal) throughout the swim chamber, which also included crossing into another quadrant. Immobility was assigned when no additional activity was observed other than that required to keep the rat's head above water.

In the next data set the test system is Male Wistar rats. Put plainly: Forced Swim Test (FST). Type of data set: in vivo. The following applies: rat; immobility and swimming; FIG. 1. The procedure: Male Wistar rats (Charles River, Hollister, Calif.), weighing 175-225 g (Charles River, Portage, Ind.) used for the forced swim test study were housed in pairs with food and water available ad libitum, except during testing, in a temperature and humidity controlled vivarium (21° C.). Rats were maintained on a 12-hour reverse light-dark cycle with lights on at 6 pm. All experimental procedures occurred during the dark cycle, were approved by the Institutional Animal Care and Use Committee of the Scripps Research Institute, and were in accordance with the Association for the Assessment and Accreditation of Laboratory Animal Care (AAALAC) guidelines. […]
After the habituation swim and 24 hours prior to the test swim, rats were administered one of three doses of a mGlu2/3 NAM, with doses and pretreatment time based on maximal brain penetration as determined by PK studies for each compound. Blood and brain tissue were collected immediately after the FST and the PK properties of each compound were analyzed together with FST behavior. […] Twenty-four hours after their first exposure, the animals were again placed in the swim apparatus for 5 min, and behaviors were monitored from above by video camera for subsequent analysis. The rater of the behavioral patterns was blind with respect to the experimental conditions being scored. […]

[4] abbreviates: 2.5 min compound incubation, read-out: mGlu2 EC50 (μM) (2.5 min).
The mark [5] stands for this setting: mGlu2 EC50 (μM) (60 min), 60 min compound incubation.
[6] abbreviates: rat brain tissue, read-out: Brain.
The mark [7] stands for this setting: read-out: mGlu2 EC50 (μM) (60 min), 60 min compound incubation.

Structures are written as SMILES. Read-outs that look alike come from different tables or passages of the source. Some results are limits rather than exact numbers.

Chain of rat mGlu3 receptor (P31422 23-879): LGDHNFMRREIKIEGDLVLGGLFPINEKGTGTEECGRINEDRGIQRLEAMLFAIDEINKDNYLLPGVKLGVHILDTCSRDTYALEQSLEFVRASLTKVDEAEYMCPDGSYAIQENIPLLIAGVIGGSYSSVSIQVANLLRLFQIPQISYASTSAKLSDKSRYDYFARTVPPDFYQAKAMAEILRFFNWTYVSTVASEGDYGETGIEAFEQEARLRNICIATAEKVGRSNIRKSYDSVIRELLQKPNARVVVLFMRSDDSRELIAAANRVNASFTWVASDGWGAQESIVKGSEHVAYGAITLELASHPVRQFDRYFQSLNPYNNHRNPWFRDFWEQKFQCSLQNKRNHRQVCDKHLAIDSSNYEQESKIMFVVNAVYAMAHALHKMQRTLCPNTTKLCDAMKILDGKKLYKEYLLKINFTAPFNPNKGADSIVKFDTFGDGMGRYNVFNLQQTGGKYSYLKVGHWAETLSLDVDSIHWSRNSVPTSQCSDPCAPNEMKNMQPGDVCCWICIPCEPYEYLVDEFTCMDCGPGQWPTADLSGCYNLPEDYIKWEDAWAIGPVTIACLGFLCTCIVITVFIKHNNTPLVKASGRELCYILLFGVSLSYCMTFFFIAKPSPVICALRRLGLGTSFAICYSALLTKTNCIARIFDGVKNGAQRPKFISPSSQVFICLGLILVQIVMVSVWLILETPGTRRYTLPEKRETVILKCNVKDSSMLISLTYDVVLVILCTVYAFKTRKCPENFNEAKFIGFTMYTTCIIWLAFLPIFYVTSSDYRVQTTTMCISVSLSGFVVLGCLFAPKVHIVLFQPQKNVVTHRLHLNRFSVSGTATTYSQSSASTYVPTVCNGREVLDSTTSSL
Chain of rat mGlu2 receptor (P31421 19-872): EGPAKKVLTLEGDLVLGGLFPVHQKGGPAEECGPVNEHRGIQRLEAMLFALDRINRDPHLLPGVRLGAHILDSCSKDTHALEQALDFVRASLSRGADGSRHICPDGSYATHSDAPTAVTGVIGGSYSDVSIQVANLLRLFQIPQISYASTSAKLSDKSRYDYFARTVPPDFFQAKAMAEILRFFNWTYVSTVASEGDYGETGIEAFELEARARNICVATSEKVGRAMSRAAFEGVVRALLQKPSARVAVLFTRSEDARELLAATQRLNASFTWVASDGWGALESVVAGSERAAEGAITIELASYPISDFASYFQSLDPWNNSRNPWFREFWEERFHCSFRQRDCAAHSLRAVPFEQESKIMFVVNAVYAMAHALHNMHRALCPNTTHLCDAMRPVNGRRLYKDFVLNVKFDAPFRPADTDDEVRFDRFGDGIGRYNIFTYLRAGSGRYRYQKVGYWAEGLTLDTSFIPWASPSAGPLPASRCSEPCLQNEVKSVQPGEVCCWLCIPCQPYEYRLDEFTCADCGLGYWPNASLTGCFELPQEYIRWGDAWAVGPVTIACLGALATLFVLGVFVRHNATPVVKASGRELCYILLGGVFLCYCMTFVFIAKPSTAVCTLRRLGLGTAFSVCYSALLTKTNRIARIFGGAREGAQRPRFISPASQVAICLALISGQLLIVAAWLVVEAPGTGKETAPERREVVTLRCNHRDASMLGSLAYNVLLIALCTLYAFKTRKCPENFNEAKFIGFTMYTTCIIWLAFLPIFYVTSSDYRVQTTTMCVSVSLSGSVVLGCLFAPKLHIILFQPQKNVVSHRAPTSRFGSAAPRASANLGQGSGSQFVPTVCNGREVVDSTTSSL

Usually EC50 stands for the midpoint of the concentration-response curve. For `O=C(O)c1cc(F)cc(-c2cccc(-c3nsc(-c4ccoc4)n3)c2)c1` [Example 43, 5-Fluoro-3′-(5-(furan-3-yl)-1,2,4-thiadiazol-3-yl)biphenyl-3-carboxylic Acid], the EC50 was 0.17 µM on rat mGlu2 receptor (setting [4]), 0.11 µM at rat mGlu2 receptor (setting [5]) and 3.43 µM on rat mGlu3 receptor. Further, the “Microsomal Stability, Percent Remaining @ 1 hour” value in data set [1] stood at 66%. Further, in data set [2], the “Plasma Stability, Percent Remaining @ 1 hour” value was 95%. For the same compound, the concentration at 24 h came to 210 ± 40 nM in data set [3] (setting [6]) and 4690 ± 780 nM in data set [3] (rat plasma, read-out: Plasma).

As to `O=C(O)c1cc(F)cc(-c2cccc(-c3nc(-c4ccco4)cc(C(F)(F)F)n3)c2)c1` [Example 89, 5-Fluoro-3′-(4-(furan-2-yl)-6-(trifluoromethyl)pyrimidin-2-yl)biphenyl-3-carboxylic Acid], the EC50 on rat mGlu2 receptor (setting [4]) is 1.24 µM; on rat mGlu2 receptor (setting [7]), 0.14 µM; at rat mGlu3 receptor, 2.25 µM. Moreover, the “Microsomal Stability, Percent Remaining @ 1 hour” value in data set [1] was found to be 82%. In addition, in data set [2], the “Plasma Stability, Percent Remaining @ 1 hour” value turned out to be 100%.

`O=C(O)c1cccc(-c2cccc(-c3cc(-c4ccccc4)on3)c2)c1` [Example 49, 3′-(5-Phenylisoxazol-3-yl)-[1,1′-biphenyl]-3-carboxylic Acid]: the EC50 at rat mGlu2 receptor (setting [4]) is over 10 µM; at rat mGlu2 receptor (setting [5]) it was over 30 µM; at rat mGlu3 receptor, over 10 µM. Besides, the concentration at 24 h in data set [3] (setting [6]) came out at 500 ± 50 nM; in data set [3] (rat plasma, read-out: Plasma), 19200 ± 2100 nM.

Regarding `O=C(O)c1ccc(F)c(-c2cccc(-c3nc(-c4ccc(C(F)(F)F)nc4)cc(C(F)(F)F)n3)c2)c1` [Example 79, 6-Fluoro-3′-(4-(trifluoromethyl)-6-(6-(trifluoromethyl)pyridin-3-yl)pyrimidin-2-yl)biphenyl-3-carboxylic Acid], the EC50 on rat mGlu2 receptor (setting [4]) amounted to 0.83 µM; on rat mGlu2 receptor (setting [7]), 0.09 µM; at rat mGlu3 receptor, 0.89 µM. The “Microsomal Stability, Percent Remaining @ 1 hour” value in data set [1] was 82%. In addition, in data set [2], the “Plasma Stability, Percent Remaining @ 1 hour” value is 86%.

Regarding `N#Cc1cc(C2=Nc3ccc(Br)cc3NC(=O)C2)ccn1` [Example 182, 4-(8-Bromo-2-oxo-2,3-dihydro-1H-benzo[b][1,4]diazepin-4-yl)picolinonitrile], the EC50 on rat mGlu2 receptor (setting [4]), at rat mGlu2 receptor (setting [7]) and at rat mGlu3 receptor was 0.04 µM in each case. The “antidepressant activity in the Forced Swim Test” value in the data set with Male Wistar rats was “decreasing immobility and increasing swimming”. In addition, the concentration at 24 h in data set [3] (setting [6]) was 280 ± 100 nM; in data set [3] (rat plasma, read-out: Plasma), 160 ± 30 nM.

As to `O=C(O)c1cc(F)cc(-c2cccc(-c3csc(-c4ccccc4)n3)c2)c1` [Example 9, 5-Fluoro-3′-(2-phenylthiazol-4-yl)biphenyl-3-carboxylic Acid], the values for the EC50 at rat mGlu2 receptor (setting [4]), on rat mGlu2 receptor (setting [5]) and on rat mGlu3 receptor were 0.64 µM, 0.35 µM and over 10 µM, respectively. Further, the “Microsomal Stability, Percent Remaining @ 1 hour” value in data set [1] is 4%. For the same compound, the “Plasma Stability, Percent Remaining @ 1 hour” value in data set [2] is 98%.

Take `O=C(O)c1cc(-c2cccc(-c3nc(-c4ccc(C(F)(F)F)nc4)cc(C(F)(F)F)n3)c2)ccc1F` [Example 73, 4-Fluoro-3′-(4-(trifluoromethyl)-6-(6-(trifluoromethyl)pyridin-3-yl)pyrimidin-2-yl)biphenyl-3-carboxylic Acid]: the values for the EC50 on rat mGlu2 receptor (setting [4]), at rat mGlu2 receptor (setting [7]) and on rat mGlu3 receptor were 0.82 µM, 0.17 µM and 1.18 µM, respectively. Further, the concentration at 24 h in data set [3] (setting [6]) was 140 ± 90 nM; in data set [3] (rat plasma, read-out: Plasma), 9010 ± 2230 nM.

As to `O=C(O)c1cc(-c2cccc(-c3nc(-c4ccoc4)cc(C(F)(F)F)n3)c2)ccc1F` [Example 94, 4-Fluoro-3′-(4-(furan-3-yl)-6-(trifluoromethyl)pyrimidin-2-yl)biphenyl-3-carboxylic Acid], the EC50 came out at 0.14 µM on rat mGlu2 receptor (setting [7]) and 0.28 µM at rat mGlu3 receptor. Further, the concentration at 24 h turned out to be 490 ± 60 nM in data set [3] (setting [6]) and 15900 ± 950 nM in data set [3] (rat plasma, read-out: Plasma).

On to `O=C(O)c1cc(-c2cccc(-c3nc(-c4ccsc4)cc(C(F)(F)F)n3)c2)ccc1F` [Example 122, 4-Fluoro-3′-(4-(thiophen-3-yl)-6-(trifluoromethyl)pyrimidin-2-yl)-[1,1′-biphenyl]-3-carboxylic Acid], for which the values for the EC50 on rat mGlu2 receptor (setting [7]) and on rat mGlu3 receptor were 0.07 µM and 0.53 µM, respectively. The “Microsomal Stability, Percent Remaining @ 1 hour” value in data set [1] amounted to 83%. For the same compound, the “Plasma Stability, Percent Remaining @ 1 hour” value in data set [2] turned out to be 83%.

`COc1ccc(-c2cc(C(F)(F)F)nc(-c3cccc(-c4ccc(F)c(C(=O)O)c4)c3)n2)cc1` [Example 87, 4-Fluoro-3′-(4-(4-methoxyphenyl)-6-(trifluoromethyl)pyrimidin-2-yl)biphenyl-3-carboxylic Acid]: the EC50 on rat mGlu2 receptor (setting [4]) was found to be 1.07 µM; on rat mGlu2 receptor (setting [7]), 0.06 µM; at rat mGlu3 receptor, 1 µM. Also, the “Microsomal Stability, Percent Remaining @ 1 hour” value in data set [1] turned out to be 92%. In addition, in data set [2], the “Plasma Stability, Percent Remaining @ 1 hour” value is reported as 97%.

For `O=C(O)c1cc(-c2cccc(-c3nsc(-c4ccccc4)n3)c2)ccc1F` [Example 38, 4-Fluoro-3′-(5-phenyl-1,2,4-thiadiazol-3-yl)biphenyl-3-carboxylic Acid], the EC50 at rat mGlu2 receptor (setting [4]) came to 0.1 µM; on rat mGlu2 receptor (setting [5]), 0.05 µM; on rat mGlu3 receptor, 0.52 µM. The “Microsomal Stability, Percent Remaining @ 1 hour” value in data set [1] is reported as 2%. For the same compound, the “Plasma Stability, Percent Remaining @ 1 hour” value in data set [2] was 65%.

As to `Cc1cc2c(cc1C(F)(F)F)NC(=O)CC(c1cccc(S(=O)(=O)c3ncccn3)c1)=N2` [Example 137, 7-Methyl-4-(3-(pyrimidin-2-ylsulfonyl)phenyl)-8-(trifluoromethyl)-1H-benzo[b][1,4]diazepin-2(3H)-one], the EC50 was 0.45 µM on rat mGlu2 receptor (setting [4]), 0.06 µM on rat mGlu2 receptor (setting [7]) and 0.3 µM on rat mGlu3 receptor. Also, in data set [1], the “Microsomal Stability, Percent Remaining @ 1 hour” value was 68%. In data set [2], the “Plasma Stability, Percent Remaining @ 1 hour” value is 66%.

Consider `O=C1CC(c2cccc(-c3cccnc3)c2)=Nc2ccc(Br)cc2N1` [Example 179, 8-Bromo-4-(3-(pyridin-3-yl)phenyl)-1,3-dihydro-2H-benzo[b][1,4]diazepin-2-one], for which the figures for the EC50 on rat mGlu2 receptor (setting [4]), at rat mGlu2 receptor (setting [7]) and at rat mGlu3 receptor were 2.74 µM, 0.02 µM and 1.37 µM, respectively. Moreover, the “Microsomal Stability, Percent Remaining @ 1 hour” value in data set [1] was 30%. In data set [2], the “Plasma Stability, Percent Remaining @ 1 hour” value stood at 100%.

For `O=C1CC(c2ccnc(Br)c2)=Nc2ccc(C(F)(F)F)cc2N1` [Example 191, 4-(2-Bromopyridin-4-yl)-8-(trifluoromethyl)-1,3-dihydro-2H-benzo[b][1,4]diazepin-2-one], the EC50 is 0.25 µM at rat mGlu2 receptor (setting [4]), 0.08 µM at rat mGlu2 receptor (setting [7]) and 0.18 µM on rat mGlu3 receptor. Besides, in the data set with Male Wistar rats, the “antidepressant activity in the Forced Swim Test” value was “decreasing immobility and increasing swimming”. In addition, the concentration at 24 h in data set [3] (setting [6]) is 1430 ± 460 nM; in data set [3] (rat plasma, read-out: Plasma) it was 280 ± 60 nM.
